Data as given in US20050215548A1 (Cyclacel Limited, priority 2002, published 2005).
Read-outs that look alike come from different tables or passages of the source.

What was measured:
H1299 = assay: 72-h MTT cytotoxicity assay, H1299; format: cell-based; details: Homo sapiens, NCI-H1299; 72-h MTT; Table 1; read-out: IC50 Anti-proliferative effect on cell line H 1299
Protocol: (§1) The fluorescence polarisation competitive HDM2 binding assay described in Example 3 was used. Furthermore, the anti-proliferative potency of the compounds against three human tumour cell lines with different genetic make-up was also determined. […] The cell lines used were as follows: AGS, gastric adenocarcinoma, wild-type p53; H1299, large cell lung carcinoma, p53 null, low HDM2; SJSA-1, primitive multipotential bone sarcoma, wild-type p53, overexpressed HDM2.
(§2) Representative bisarylsulfonamide compounds were tested on a panel of transformed and non-transformed human cell lines, using a standard 72-h MTT cytotoxicity assay [Haselsberger K et al, ibid].

AGS = assay: 72-h MTT cytotoxicity assay, AGS; format: cell-based; details: Homo sapiens, 72-h MTT, Table 1, read-out: IC50 Anti-proliferative effect on cell line AGS
Protocol: as §1, §2

SJSA-1 = assay: 72-h MTT cytotoxicity assay, SJSA-1; format: cell-based; details: Homo sapiens, SJSA-1; 72-h MTT; Table 1; read-out: IC50 Anti-proliferative effect on cell line SJSA-1
Protocol: as §1, §2

[1] = system: E2F transcription factors; assay: E2F reporter gene assay (A549-derived luciferase reporter cell line); format: cell-based; details: Homo sapiens
Protocol: A similar system to the p53 reporter assay described above was used, with the exception that it was designed to be responsive to E2F transcription factors rather than p53. An A549-derived cell line stably transfected with an E2F response element and a luciferase reporter gene was created. The genetic expression cassette construct used was from Clontech (Mercury™ Cell Cycle Profiling System). Assays were carried out as described above.
Representative bisarylsulfonamides were tested in the E2F gene reporter assay described in Example 6.

HDM2 = target: T1, HDM2 (Homo sapiens, UniProt Q00987); assay: Fluorescence polarisation competitive HDM2 binding assay
T1 construct: Recombinant HDM2 (1.5 μg per well) in TBS-BSA buffer
Summary of the method: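 Recombinant HDM2 (1.5 μg/well) was preincubated 5 min at room temperature with serially diluted compound in 50 mM Tris pH 7.4, 150 mM NaCl, 0.1% BSA, 5% DMSO final. Fluorescein-labelled p53 peptide (0.2 μM) was then added for 45 min. Polarisation was read at 485/520 nm and IC50 derived from dose-response curves.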

p53 = p53 reporter gene assay (U2OS-derived luciferase reporter cell line); details: for Fold induction of luciferase activity: compared to basal luciferase activity, 16-h time point, at concentration of maximal induction; for Concentration (test compound concentration at which the p53 induction was maximal): p53 reporter, U2OS-derived cell line
Protocol: A dual assay assessing both cell viability and p53 response was employed. A U2OS-derived cell line stably transfected with a p53 response element and a luciferase reporter gene was created. […] After seeding of cells into 96-well tissue culture plates, treatment with test compounds, and incubation for the desired duration, the cell proliferation reagent WST-1 (Roche Molecular Biochemicals) was used to determine cell viability. The Bright-Glo™ Luciferase Assay System (Promega) was used to measure luciferase activity. The data from the cell viability assay was used to normalise data from the luciferase assay.

[2] = after 3-h treatment with test compounds, read-out: IC50 E2F reporter, Non-synchronised cells
[3] = after 3-h treatment, synchronisation with 0.3 mM mimosine for 24 h, followed by wash-out, read-out: IC50 E2F reporter, Synchronised cells
[4] = fluorescence polarisation format, Table 1, read-out: IC50 In vitro competitive HDM2 binding assay
[5] = fluorescence polarisation assay, Table 3, read-out: In vitro competitive HDM2 binding assay IC50

T1 sequence (Q00987 whole entry): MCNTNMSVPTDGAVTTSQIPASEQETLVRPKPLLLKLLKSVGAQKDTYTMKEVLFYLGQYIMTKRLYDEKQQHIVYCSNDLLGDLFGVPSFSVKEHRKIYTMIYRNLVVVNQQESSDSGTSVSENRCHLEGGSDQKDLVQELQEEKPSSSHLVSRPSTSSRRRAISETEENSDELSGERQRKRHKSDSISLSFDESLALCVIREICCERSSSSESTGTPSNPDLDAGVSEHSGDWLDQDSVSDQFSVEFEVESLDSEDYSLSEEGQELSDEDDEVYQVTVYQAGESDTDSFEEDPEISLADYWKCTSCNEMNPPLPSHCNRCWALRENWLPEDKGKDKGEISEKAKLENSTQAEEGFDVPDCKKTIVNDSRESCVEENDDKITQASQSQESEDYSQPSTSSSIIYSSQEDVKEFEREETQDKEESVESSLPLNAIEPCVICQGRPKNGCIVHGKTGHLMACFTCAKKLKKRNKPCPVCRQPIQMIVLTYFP

IC50 [1, 2] | IC50 [1, 3] | IC50 (HDM2; [4]) | IC50 (HDM2; [5]) | Fold induction of luciferase activity (p53) | Compound | IC50 (H1299) | IC50 (AGS) | IC50 (SJSA-1) | Concentration (test compound concentration at which the p53 induction was maximal) (p53)
73.3 ± 33.4 µM | 72 ± 31 µM | 105 ± 26 µM |  |  | O=[N+]([O-])c1cc(S(=O)(=O)Nc2ccc(O)cc2)sc1Cl [Compound 5, 5-Chloro-4-nitrothiophene-2-sulfonic acid (4-hydroxyphenyl)amide] | 8.7 ± 2.2 µM | 2.2 ± 0.6 µM | 24 ± 2.1 µM | 
 |  | 232 ± 13 µM | 231 ± 13 µM | 4 fold | O=[N+]([O-])c1cc(S(=O)(=O)Nc2ccc(Cl)cc2)ccc1Cl [Compound 38, 4-Chloro-N-(4-chlorophenyl)-3-nitro-benzenesulfonamide] | 11 ± 4 µM | 16 ± 4 µM | 22 ± 4 µM | 13 µM
90 µM |  | 46.1 ± 3.4 µM | 46.1 ± 3.4 µM | 64 fold | O=[N+]([O-])c1cc(S(=O)(=O)Nc2cc(Cl)cc(Cl)c2)sc1Cl [Compound 39, 5-Chloro-4-nitrothiophene-2-sulfonic acid (3,5-dichlorophenyl)-amide] | 12.1 ± 4 µM | 4.9 ± 1.6 µM | 27.2 ± 0.4 µM | 15 µM
99.5 µM |  | 59.6 ± 10.5 µM | 59.6 ± 10.9 µM | 68 fold | O=[N+]([O-])c1cc(S(=O)(=O)Nc2cc(F)cc(F)c2)sc1Cl [Compound 40, 5-Chloro-4-nitrothiophene-2-sulfonic acid (3,5-difluorophenyl)-amide] | 10.6 ± 0.4 µM | 4 ± 0.3 µM | 26.4 ± 0.2 µM | 13 µM
76.6 µM | 84 µM | 258 ± 12 µM |  |  | O=S(=O)(Nc1ccc(C(F)(F)F)cc1)c1cnc(Cl)c(Br)c1 [Compound 41, 5-Bromo-6-chloropyridine-3-sulfonic acid (4-trifluoromethylphenyl)amide] | 28 µM | 31 ± 2 µM | 53 ± 3 µM | 
 |  | 16 ± 3.7 µM | 16 ± 3.7 µM | 67 fold | O=[N+]([O-])c1cc(S(=O)(=O)NCc2ccc(F)cc2)sc1Cl [Compound 45, 5-Chloro-4-nitrothiophene-2-sulfonic acid 4-fluorobenzylamide] | 11.1 ± 3.1 µM | 7.5 ± 4.4 µM | 11.5 ± 3 µM | 15 µM
25.5 ± 3.1 µM |  | 11.1 ± 1.7 µM | 11.1 ± 1.7 µM | 55 fold | O=[N+]([O-])c1cc(S(=O)(=O)NCc2ccc(C(F)(F)F)cc2)sc1Cl [Compound 46, 5-Chloro-4-nitrothiophene-2-sulfonic acid 4-trifluoromethylbenzylamide] | 3.4 ± 0.5 µM | 1.3 ± 0.5 µM | 4.4 ± 1.1 µM | 6 µM
31.3 ± 2.6 µM |  | 25.3 ± 4.6 µM | 25.3 ± 4.6 µM | 43.5 fold | O=[N+]([O-])c1cc(S(=O)(=O)NCCc2c[nH]c3ccccc23)sc1Cl [Compound 48, 5-Chloro-4-nitrothiophene-2-sulfonic acid [2-(1H-indol-3-yl)-ethyl]amide] | 3.6 ± 0.9 µM | 2.6 ± 1.4 µM | 3.1 ± 1 µM | 5.5 µM
 |  | 7.3 ± 0.6 µM | 7.3 ± 0.6 µM | 21 fold | CN(c1ccc(C(F)(F)F)cc1)S(=O)(=O)c1cc([N+](=O)[O-])c(Cl)s1 [Compound 50, 5-Chloro-4-nitrothiophene-2-sulfonic acid methyl-(4-trifluoromethylphenyl)amide] | 34.7 ± 6.1 µM | 30.3 ± 0.3 µM | 35.4 ± 11.5 µM | 39 µM
 |  | 20.2 ± 1.3 µM | 20.2 ± 1.3 µM | 90 fold | O=[N+]([O-])c1cc(S(=O)(=O)NCc2cc(Cl)cc(Cl)c2)sc1Cl [Compound 54, 5-Chloro-4-nitro-thiophene-2-sulfonic acid 3,5-dichloro-benzylamide] | 9.7 ± 2.9 µM | 5.6 ± 0.2 µM | 12 ± 0.4 µM | 10 µM
 |  | 27 ± 10.1 µM | 27 ± 10.1 µM | 53 fold | O=[N+]([O-])c1cc(S(=O)(=O)NCc2cc(F)cc(F)c2)sc1Cl [Compound 55, 5-Chloro-4-nitro-thiophene-2-sulfonic acid 3,5-difluoro-benzylamide] | 9.3 ± 2.5 µM | 7 µM | 13.3 ± 2.1 µM | 10 µM
 |  | 31.1 ± 5.6 µM | 31.1 ± 5.6 µM | 25 fold | CC(NS(=O)(=O)c1cc([N+](=O)[O-])c(Cl)s1)c1ccc(F)cc1 (stereo not shown) [Compound 57, 5-Chloro-4-nitro-thiophene-2-sulfonic acid [1-(4-fluoro-phenyl)-ethyl]-amide] | 2.7 ± 0.6 µM | 1.7 ± 0.3 µM | 5.9 ± 0.2 µM | 7 µM
29.2 ± 6.8 µM |  | 29 ± 6 µM | 29 ± 6 µM | 48 fold | O=[N+]([O-])c1cc(S(=O)(=O)NCCc2c[nH]c3cc(Cl)ccc23)sc1Cl [Compound 60, 5-Chloro-4-nitro-thiophene-2-sulfonic acid [2-(6-chloro-1H-indol-3-yl)-ethyl]-amide] |  |  |  | 7.5 µM
34.6 ± 22.9 µM |  | 45 ± 14 µM | 45 ± 14 µM | 34 fold | COc1ccc(NS(=O)(=O)c2cc([N+](=O)[O-])c(Cl)s2)cc1 [Compound 61, 5-Chloro-4-nitro-thiophene-2-sulfonic acid (4-methoxy-phenyl)-amide] | 2.7 ± 0.4 µM | 1.8 ± 0.4 µM | 2.8 ± 0.2 µM | 4.8 µM
 |  | 35 ± 8 µM | 35 ± 8 µM | 95 fold | Cc1ccc(NS(=O)(=O)c2cc([N+](=O)[O-])c(Cl)s2)cc1 [Compound 63, 5-Chloro-4-nitro-thiophene-2-sulfonic acid p-tolylamide] | 3.9 ± 0.9 µM | 1.7 ± 0.6 µM | 5.7 ± 1.6 µM | 6.4 µM
44.6 ± 2.3 µM |  | 18 µM |  |  | O=[N+]([O-])c1cc(S(=O)(=O)NCc2ccccc2)sc1Cl [Compound 64, 5-Chloro-4-nitro-thiophene-2-sulfonic acid benzylamide] | 6.3 ± 2.1 µM | 3.6 ± 0.2 µM | 7.3 ± 1.7 µM | 
 |  | 7.4 ± 1 µM | 7.4 ± 1 µM | 74 fold | O=[N+]([O-])c1cc(S(=O)(=O)N(Cc2ccccc2)c2ccc(Cl)cc2)sc1Cl [Compound 65, 5-Chloro-4-nitro-thiophene-2-sulfonic acid benzyl-(4-chloro-phenyl)-amide] | 10.8 ± 4.3 µM | 5.2 ± 2.2 µM | 11.1 ± 6.7 µM | 10 µM
 |  | 14.7 ± 0.9 µM | 14.7 ± 0.9 µM | 65 fold | COc1ccc(N(Cc2ccccc2)S(=O)(=O)c2cc([N+](=O)[O-])c(Cl)s2)cc1 [Compound 66, 5-Chloro-4-nitro-thiophene-2-sulfonic acid benzyl-(4-methoxy-phenyl)-amide] | 3.9 ± 0.5 µM | 2.4 ± 0.2 µM | 3.9 ± 1.3 µM | 4.2 µM
29.4 ± 6 µM |  | 119 ± 43 µM | 119 ± 42.5 µM | 10 fold | O=[N+]([O-])c1cc(S(=O)(=O)Nc2nc3ccccc3[nH]2)ccc1Cl [Compound 83, N-(1H-Benzoimidazol-2-yl)-4-chloro-3-nitro-benzenesulfonamide] | 1.4 ± 0.2 µM | 0.9 ± 0.1 µM | 2.3 ± 0.9 µM | 5 µM
